Results as given in ChEMBL document CHEMBL3102743, “Regulation of crosstalk between epithelial to mesenchymal transition molecules and MMP-9 mediates the antimetastatic activity of anethole in DU145 prostate cancer cells” (J Nat Prod, 2014).
Calls of active or inactive are those of the source. No cut-off for these calls is given here.

How the values were obtained:
DU-145 [1] = experiment: Antimetastatic activity in MMP9 siRNA transfected human DU145 cells assessed as increase of E-cadherin expression at 25 to 100 uM by Western blotting; type: functional, cell-based
DU-145 [2] = experiment: Antimetastatic activity in human DU145 cells assessed as reduction of twist expression at 100 uM after 24 hrs by Western blotting in presence of TGF-beta; type: functional, cell-based
DU-145 [3] = experiment: Antimetastatic activity in human DU145 cells assessed as decrease of vimentin expression at 25 to 100 uM by Western blotting; type: functional, cell-based
DU-145 [4] = experiment: Antimetastatic activity in human DU145 cells assessed as increase of E-cadherin mRNA expression at 25 to 100 uM by RT-PCR analysis; type: functional, cell-based
DU-145 [5] = experiment: Antimetastatic activity in human DU145 cells assessed as increase of E-cadherin expression at 25 to 100 uM by Western blotting; type: functional, cell-based
DU-145 [6] = experiment: Antimetastatic activity in human DU145 cells assessed as decrease of MMP9 mRNA expression at 25 to 100 uM by RT-PCR analysis; type: functional, cell-based
DU-145 [7] = experiment: Antiinvasive activity in human DU145 cells assessed as reduction of number of invaded cells through matrigel at 100 uM after 8 hrs by Boyden chamber invasion assay in presence of TGF-beta; type: functional, cell-based
DU-145 [8] = experiment: Inhibition of cell adhesion in human DU145 cells in vitronectin-coated plates at 25 to 100 uM; type: functional, cell-based
DU-145 [9] = experiment: Antimetastatic activity in human DU145 cells assessed as decrease of snail mRNA expression at 25 to 100 uM by RT-PCR analysis; type: functional, cell-based
DU-145 [10] = experiment: Antimetastatic activity in human DU145 cells assessed as increase of E-cadherin expression at 100 uM after 24 hrs by immunofluorescence analysis in presence of TGF-beta; type: functional, cell-based
DU-145 [11] = experiment: Antimetastatic activity in human DU145 cells assessed as reduction of vimentin expression at 100 uM after 24 hrs by Western blotting in presence of TGF-beta; type: functional, cell-based
DU-145 [12] = experiment: Antimetastatic activity in human DU145 cells assessed as decrease of MMP9 expression at 100 uM in presence of TGF-beta; type: functional, cell-based
DU-145 [13] = experiment: Antiinvasive activity in human DU145 cells assessed as reduction of number of invaded cells through matrigel at 25 to 100 uM after 8 hrs by Boyden chamber invasion assay; type: functional, cell-based
DU-145 [14] = experiment: Antimetastatic activity in human DU145 cells assessed as increase of E-cadherin expression at 100 uM after 24 hrs by Western blotting in presence of TGF-beta; type: functional, cell-based
DU-145 [15] = experiment: Antimetastatic activity in human DU145 cells assessed as decrease of PI3K/Akt expression by Western blotting; type: functional, cell-based
DU-145 [16] = experiment: Antimigratory activity in human DU145 cells at 100 uM by wound-healing assay; type: functional, cell-based
DU-145 [17] = experiment: Antimetastatic activity in MMP9 siRNA transfected human DU145 cells assessed as increase of vimentin expression at 25 to 100 uM by Western blotting; type: functional, cell-based
DU-145 [18] = experiment: Cytotoxicity against human DU145 cells assessed as cell viability up to 200 uM after 24 hrs by MTT assay; type: cell-based; conditions: du-145, 24 h
[19] = biological target: Matrix metalloproteinase-9 (Homo sapiens) (UniProt P14780); experiment: Inhibition of MMP9 in human DU145 cells after 24 hrs by SDS-PAGE gelatin zymography assay; type: cell-based; conditions: DU-145
DU-145 [20] = experiment: Antimetastatic activity in human DU145 cells assessed as decrease of vimentin mRNA expression at 25 to 100 uM by RT-PCR analysis; type: functional, cell-based
DU-145 [21] = experiment: Antimetastatic activity in human DU145 cells assessed as decrease of twist mRNA expression at 25 to 100 uM by RT-PCR analysis; type: functional, cell-based
DU-145 [22] = experiment: Antimetastatic activity in human DU145 cells assessed as decrease of twist expression at 25 to 100 uM by Western blotting; type: functional, cell-based

Matrix metalloproteinase-9 (Homo sapiens), sequence (P14780 whole entry): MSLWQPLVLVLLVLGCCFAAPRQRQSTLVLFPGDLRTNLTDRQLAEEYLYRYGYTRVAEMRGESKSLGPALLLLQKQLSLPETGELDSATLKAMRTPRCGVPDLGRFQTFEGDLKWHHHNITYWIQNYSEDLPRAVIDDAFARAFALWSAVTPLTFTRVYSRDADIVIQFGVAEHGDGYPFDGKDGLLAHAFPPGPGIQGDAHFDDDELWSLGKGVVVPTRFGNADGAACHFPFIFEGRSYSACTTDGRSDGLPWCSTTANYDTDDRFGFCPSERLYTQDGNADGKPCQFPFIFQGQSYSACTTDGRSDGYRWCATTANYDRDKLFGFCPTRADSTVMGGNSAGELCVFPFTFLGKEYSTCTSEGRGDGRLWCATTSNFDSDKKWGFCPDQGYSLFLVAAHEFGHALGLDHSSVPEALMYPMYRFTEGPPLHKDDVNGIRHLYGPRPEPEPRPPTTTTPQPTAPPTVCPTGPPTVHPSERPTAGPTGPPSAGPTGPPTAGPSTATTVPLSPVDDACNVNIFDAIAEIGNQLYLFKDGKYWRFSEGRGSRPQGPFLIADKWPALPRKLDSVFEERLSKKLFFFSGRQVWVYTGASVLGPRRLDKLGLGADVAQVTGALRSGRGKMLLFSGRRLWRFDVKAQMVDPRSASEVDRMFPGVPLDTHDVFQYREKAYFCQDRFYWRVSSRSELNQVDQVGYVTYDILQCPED

C/C=C/c1ccc(OC)cc1 [ANETHOLE]
Activity (DU-145 [1]): inactive
Activity (DU-145 [2]): inactive
Activity (DU-145 [3]): Active
Activity (DU-145 [4]): Active
Activity (DU-145 [5]): Active
Activity (DU-145 [6]): Active
Activity (DU-145 [7]): inactive
inhibition (DU-145 [8]): Active
Activity (DU-145 [9]): Active
Activity (DU-145 [10]): inactive
Activity (DU-145 [11]): inactive
Activity (DU-145 [12]): inactive
Activity (DU-145 [13]): Active
Activity (DU-145 [14]): inactive
Activity (DU-145 [15]): Dose-dependent effect
Activity (DU-145 [16]): Active
Activity (DU-145 [17]): inactive
Activity (DU-145 [18]): Non-toxic
inhibition [19]: Dose-dependent effect
Activity (DU-145 [20]): Active
Activity (DU-145 [21]): Active
Activity (DU-145 [22]): Active
